# Literature values, collected in patent US20130195925A1, “ANTI AGING APPLICATION AND METHOD FOR TREATING AGING” (VASKIN, LLC, priority 2011, published 2013).
# What was measured:
# [1] = thought to be; compared with vitamin E
# [2] = tested on: UVB-induced pigmented skins of brownish guinea pigs; conditions: 0.5% Glabridin solution applied topically; backs of brownish guinea pigs
# [3] = tested on: co-culture model of melanocytes and keratinocytes; conditions: fluorochrome transfer, flow cytometry
# [4] = tested on: stem cell factor; conditions: human keratinocyte cell culture
# [5] = tested on: wounds; conditions: solution containing 5%
# [6] = in vivo
# [7] = in vivo; remark: listed apart in the source
smiles,measurement,setting,value
"O=C(O[C@@H]1Cc2c(O)cc(O)cc2O[C@@H]1c1cc(O)c(O)c(O)c1)c1cc(O)c(O)c(O)c1 [EGCG, Epigallocatechin galate]",power for neutralizing free radicals relative to vitamin E,[1],200 times
CC1(C)C=Cc2c(ccc3c2OC[C@@H](c2ccc(O)cc2O)C3)O1 [Glabridin],pigmentation induced by UVB radiation,[2],significantly reduced pigmentation
NC(=O)c1cccnc1 [Niacinamide],downregulation of the amount of melanosomes transferred,[3],35%-68%
COc1cc(CCC(=O)CC(=O)CCc2ccc(O)c(OC)c2)ccc1O [Tetrahydrocurcumin],safety for topical use,,no irritant or sensitization side effects
C=CCCCCCCCCC(=O)N[C@@H](Cc1ccccc1)C(=O)O [Undecylenoyl phenylalanine],gene expression and protein release of stem cell factor,[4],suppresses
"CC(=O)Oc1c(C)c(C)c2c(c1C)CCC(C)(CCC[C@H](C)CCC[C@H](C)CCCC(C)C)O2 (some centres unmarked) [Vitamin E acetate, Tocopheryl acetate]",wound healing time,[5],decreased the healing time required
O=c1cc(CO)occ1O [kojic acid],carcinogenic properties,[6],may have some carcinogenic properties
same,dermatitis,[7],can lead to dermatitis in some people
